Consider eight compounds from US8552176B2 (priority 2010, dated 2013).

Read-outs that look alike come from different tables or passages of the source.

What all share (test): cells
One experiment relates to HCT-15. The experiment is classed as cell-based, human. Particulars: read-out: GI50 HCT-15 colorectal.
For a further experiment, the system named is H1299. The experiment is classed as cell-based, human. Particulars: read-out: GI50 H1299 lung (−p53).
The subject of another experiment is MCF7. The experiment is classed as cell-based, human. Particulars: read-out: GI50 MCF7 breast.
The test system of the next experiment is HT29. The format is cell-based, human. Particulars: read-out: GI50 HT29 colorectal.
The subject of the next experiment is A549. The format is cell-based, human. Particulars: read-out: GI50 A549 lung (+p53).
The subject of another experiment is Hep3b. The experiment is classed as cell-based, human. Particulars: read-out: GI50 Hep3b liver.
Another experiment deals with DU-145. The format is cell-based, human. Particulars: read-out: GI50 DU-145 prostate.
For another experiment, the system named is SKOV3. The format is cell-based, human. Particulars: read-out: GI50 SKOV3 ovary.
In experiment [1] the test system is ten-member panel of human carcinomas. The format is cell-based.
The subject of a further experiment is NCI-H460. The experiment is classed as cell-based, human. Particulars: read-out: GI50 NCI-H460 lung.
For another experiment, the system named is SF-268. The format is cell-based, human. Particulars: read-out: GI50 SF-268 CNS.

For the compound `CON(CCCCc1ccc(N(CCCl)CCCl)cc1)C1OCC(O)C(O)C1O` (mixture of isomers) [Compound 53, N-Methoxy-4-(4-N′,N′-bis(2-chloroethyl)amino)phenylbutylamino-D-riboside], the 50% growth inhibitory concentration (GI50) (usually the concentration giving 50% growth inhibition) with HCT-15 amounted to 1.8 ± 0.1 µM; with H1299, 3.6 ± 0.3 µM; in the experiment with MCF7 it was 1.1 ± 0.1 µM; in the experiment on HT29, 2.3 ± 0.1 µM; in the experiment with A549 it was 2.8 ± 0.1 µM; in the experiment with Hep3b, 2.4 ± 0.1 µM. The GI50 with DU-145 is 3.8 ± 0.6 µM; with SKOV3, 2 ± 0.1 µM; in experiment [1] (read-out: GI50), 1.8 to 5.9 µM; in the experiment with NCI-H460, 5.9 ± 0.7 µM; with SF-268, 1.9 ± 0.1 µM.
Turning to `O=C(O)CCCc1ccc(N(CCCl)CCCl)cc1` [Compound 1, Chlorambucil, reference compound], the concentration for 50% growth inhibition (GI50) amounted to 8.1 ± 0.1 µM with HCT-15 (Homo sapiens, HCT-15, 168 h); 4.9 ± 0.2 µM in the experiment on H1299 (Homo sapiens, NCI-H1299, 168 h); 8.2 ± 0.2 µM with MCF7 (Homo sapiens, MCF7, 168 h); 5 ± 0.3 µM with HT29 (Homo sapiens, HT-29, 168 h); 6.1 ± 0.3 µM in the experiment on A549 (Homo sapiens, A549, 168 h); 5.1 ± 0.2 µM in the experiment on Hep3b (Homo sapiens, Hep3B, 168 h). Further, the 50% growth inhibitory concentration (GI50) in the experiment with DU-145 (Homo sapiens, DU-145, 168 h) was 9.4 ± 0.2 µM; in the experiment with SKOV3 (Homo sapiens, SK-OV-3, 168 h) it was 5.5 ± 0.4 µM; in experiment [1] (Homo sapiens, read-out: GI50 values) it was 5 to 11 µM; in the experiment with NCI-H460 (Homo sapiens, NCI-H460, 168 h), 11 ± 0.9 µM; in the experiment with SF-268 (Homo sapiens, SF-268, 168 h) it was 5.4 ± 0.1 µM.
As to `O=C1O[C@@H]2[C@@H](O)[C@H](N(O)CCCCc3ccc(N(CCCl)CCCl)cc3)O[C@@H]2[C@@H]1O` [Compound 67, N-Hydroxy-4-(4-N′,N′-bis(2-chloroethyl)amino)phenylbutylamino-D-glucurono-6,3-lactonide], the GI50 in the experiment on HCT-15 stood at 8.5 ± 0.5 µM; in the experiment with H1299, 3.8 ± 0.1 µM; with MCF7, 4.1 ± 0.2 µM; in the experiment on HT29 it was 9.9 ± 0.2 µM; in the experiment with A549, 10.4 ± 0.6 µM; in the experiment with Hep3b, 7.2 ± 0.3 µM. Further, the 50% growth inhibitory concentration (GI50) in the experiment with DU-145 is 14.8 ± 0.8 µM; in the experiment with SKOV3 it was 10.1 ± 0.4 µM; with NCI-H460, 13.1 ± 0.4 µM; with SF-268, 3.1 ± 0.1 µM.
Turning to `O[C@@H]1[C@H](O)COC(N(O)CCCCc2ccc(N(CCCl)CCCl)cc2)[C@@H]1O` (stereo partly drawn) [Compound 68, N-Hydroxy-4-(4-N′,N′-bis(2-chloroethyl)amino)phenylbutylamino-D-riboside], the GI50 with HCT-15 was 0.87 ± 0.05 µM; in the experiment on H1299, 1.6 ± 0.2 µM; in the experiment with MCF7, 3.2 ± 0.2 µM; in the experiment on HT29, 0.9 ± 0.05 µM; with A549 it was 0.84 ± 0.05 µM; in the experiment with Hep3b, over 5 µM. Besides, the 50% growth inhibitory concentration (GI50) was over 5 µM in the experiment on DU-145, 0.89 ± 0.04 µM in the experiment with SKOV3, 1.04 ± 0.06 µM in the experiment with NCI-H460 and 1.5 ± 0.1 µM with SF-268.
On to `C[C@H]1O[C@@H](NNC(=O)CCCc2ccc(N(CCCl)CCCl)cc2)[C@H](O)[C@@H](O)[C@H]1O` [Compound 72, 4-(4-N′,N′-bis(2-chloroethyl)amino)phenylbutylhydrazido-β-D-fucoside], for which the 50% growth inhibitory concentration (GI50) with HCT-15 is over 100 µM; in the experiment on H1299 it was 8.7 ± 0.3 µM; in the experiment with MCF7, 6.3 ± 0.2 µM; in the experiment with HT29 it was 16.7 ± 0.7 µM; with A549, 28 ± 1 µM; in the experiment on Hep3b, 11 ± 0.3 µM. Further, the 50% growth inhibitory concentration (GI50) in the experiment with DU-145 was 24 ± 2 µM; with SKOV3, 22 ± 1 µM; with NCI-H460, 51 ± 2 µM; in the experiment with SF-268, 5.8 ± 0.1 µM.
Turning to `O=C(CCCc1ccc(N(CCCl)CCCl)cc1)NN[C@@H]1O[C@H]2[C@H](OC(=O)[C@H]2O)[C@H]1O` [Compound 73, 4-(4-N′,N′-bis(2-chloroethyl)amino)phenylbutylhydrazido-D-glucurono-6,3-lactonide], the GI50 in the experiment on HCT-15 is over 100 µM; in the experiment on H1299, 12.9 ± 0.7 µM; in the experiment with MCF7 it was 9.9 ± 0.5 µM; in the experiment on HT29 it was 30 ± 2 µM; with A549, 31 ± 2 µM; in the experiment with Hep3b, 17.7 ± 0.4 µM. For the same compound, the 50% growth inhibitory concentration (GI50) was found to be 23 ± 2 µM with DU-145, 37 ± 2 µM in the experiment with SKOV3, 43 ± 4 µM with NCI-H460 and 8.9 ± 0.4 µM in the experiment with SF-268.
Take `O=C(CCCc1ccc(N(CCCl)CCCl)cc1)NNC1OC[C@@H](O)[C@H](O)[C@H]1O` (stereo partly drawn) [Compound 75, 4-(4-N′,N′-bis(2-chloroethyl)amino)phenylbutylhydrazido-D-xyloside]: the GI50 in the experiment on HCT-15 was over 100 µM; in the experiment with H1299, 3.9 ± 0.2 µM; in the experiment with MCF7 it was 4.5 ± 0.2 µM; in the experiment with HT29, 7.2 ± 0.1 µM; with A549, 14.8 ± 0.7 µM; in the experiment on Hep3b, 5.5 ± 0.4 µM. The GI50 with DU-145 came out at 19 ± 2 µM; in the experiment on SKOV3, 12 ± 0.5 µM; with NCI-H460, 26 ± 3 µM; in the experiment on SF-268, 2.5 ± 0.1 µM.
With “N-Hydroxy-4-(4-N′,N′-bis(2-chloroethyl)amino)phenylbutylamino-D-threoside nitrone [Compound 70]”, the GI50 in the experiment on HCT-15 was 2.5 ± 0.1 µM; in the experiment on H1299, 1.07 ± 0.08 µM; with MCF7 it was 2 ± 0.1 µM; with HT29, 3.2 ± 0.1 µM; with A549 it was 3 ± 0.2 µM; in the experiment on Hep3b it was 1.7 ± 0.1 µM. Moreover, the GI50 with DU-145 turned out to be 3.6 ± 0.2 µM; in the experiment on SKOV3, 2.6 ± 0.1 µM; in the experiment on NCI-H460 it was 3.8 ± 0.1 µM; in the experiment with SF-268 it was 1.2 ± 0.1 µM.
